# Data reported in patent publication US20090241221A1, “TANDEM REAPEAT DNA CONSTRUCTS PRODUCING PROTEINS THAT ATTACK PLANT PATHOGENIC VIRUSES, FUNGI, AND BACTERIA BY DISRUPTING TRANSCRIPTION FACTORS ESSENTIAL FOR REPLICATION THEREOF IN PLANTS” (priority 2008, published 2009).
# “Also recorded” adds a separate entry of the source.
# Tests used:
# mammalian retroviruses = details: millimolar concentrations; measured by release of reverse transcriptase; cited from earlier work
# Mammalian rotaviruses = details: millimolar concentrations; cited from earlier work
# [1] = test system: Arabidopsis thaliana ars27A mutant; details: in comparison with the wild type; cited from earlier work
# [2] = test system: SV40-transformed Balb 3T3 cells; details: cited from earlier work
# [3] = test system: tomato spotted wilt virus; details: tomato and tobacco plants; cited from earlier work
# virally infected cells = experiment: Apoptosis of virally infected cells; assay type: cell-based; details: for fate of viruses and host cells: HIV-1, Hepatitis C and numerous other viruses as well as the host cells
# Description: APOPTOSIS. Apoptosis is a morphological pattern of cell injury and an important mode of cell death (Robbins, Pathological Basis of Disease, 1999, 6th Ed). Apoptosis shares and overlaps common mechanisms with necrosis. […] This form of cell death is designed to eliminate defective, unwanted and damaged cells. For example, the inventors have shown that cells infected by Herpes Simplex Virus 1 (HSV; labialis) and HSV-2 genitalis are destroyed together with the host cells that they infected by apoptosis when exposed to pyridine carboxylates (Fernandez-Pol, Anticancer Res. 2002). […] Thus, the inventors believes that when host cells of animals or plants are infected by pathogenic viruses, unless the treatment is extremely quickly, the host cells and the virus will be destroyed. In fact, host cells defective, mutated, and reservoirs for the novo synthesis of viruses are unwanted host cells and must be eliminated in many instances to allow the survival of the organism.
# Orobache ramosa = details: Arabidopsis thaliana pre-treated with FU; cited from earlier work
# Arabidopsis thaliana [4] = details: cited from earlier work
# recombinant MPS-1 = target: T1, recombinant MPS-1 (Homo sapiens, UniProt P42677); experiment: Gel shift assay and Zn65 removal with recombinant MPS-1; assay type: biochemical; details: for zinc dependent binding of recombinant MPS-1 to DNA: gel shift assays
# T1 construct: made in house
# Description: MPS-1 is a ubiquitous tumor marker and cell growth stimulator and is described in detail in the inventors' U.S. Pat. No. 5,243,041. MPS-1 has one zinc finger domain of the type CCCC. […] This is detected by a change in the electrophoretic mobility of MPS-1 under non-denaturing conditions. These experiments indicate that picolinic acid and derivatives should remove zinc and denature various types of zinc finger, zinc ring proteins, or other types of ZF motifs whether known or heretofore undiscovered, including animal or plant viral proteins such as nucleocapsid proteins of retrovirus or the nucleocapsid proteins of Geminivirus. Furthermore, the inventors have determined that any chemical compound, whether known or heretofore undiscovered, that will remove the zinc (or other metal) and denature the proteins or that will form a ternary complex (protein-zinc-chelator) can be effective as an antiviral agent, with nontoxic effects, provided that the agent conforms with certain specific structural requirements.
# HSV-1 = details: tissue culture and animals; cited from earlier work
# HSV-2 = details: tissue culture and animals; cited from earlier work
# [5] = test system: SV40 transformed BALB-3T3 cells; details: 3 mM picolinic acid; cited from earlier work
# [6] = test system: normal cells (BALB 3T3, NRK, WI-348); experiment: Growth control and cell cycle arrest in normal cells
# [7] = test system: iron incorporation into the cells; experiment: Kinetic and radioisotopic studies of iron in cells; assay type: cell-based
# [8] = test system: Rice suspension cells and leaves; details: cited from earlier work
# NRK cells = NRK cells treated with picolinic acid; cited from earlier work
# Arabidopsis thaliana [9] = details: cited from earlier work; remark: listed apart in the source
# transformed cells = details: Kirsten sarcoma virus transformed cells; Flow Microfluorometric Analysis of DNA; cited from earlier work
structure (smiles),measurement,setting,value
O=C(O)CN(CCN(CC(=O)O)CC(=O)O)CC(=O)O [EDTA],disintegration of viral membranes,mammalian retroviruses,partial disintegration of viral membranes
same,disintegration of viral membranes,Mammalian rotaviruses,partial disintegration of the viral membranes
O=C(O)CN(CCOCCOCCN(CC(=O)O)CC(=O)O)CC(=O)O [EGTA],disintegration of viral membranes,mammalian retroviruses,partial disintegration of viral membranes
same,disintegration of viral membranes,Mammalian rotaviruses,partial disintegration of the viral membranes
"COS(C)(=O)=O [MMS, Methyl Methane Sulphonate]",growth of ars27A seedlings,[1],strongly inhibited
"NC(=O)c1cccnc1 [Nicotinamide, reference compound]",effect on cell growth or apoptosis,[2]; 48 h,no effect on cell growth or apoptosis
NC(=O)c1ncn([C@@H]2O[C@H](CO)[C@@H](O)[C@H]2O)n1 [Ribavirin],efficacy against tomato spotted wilt virus,[3],successfully used; also recorded: most efficient in tomato plants
"CCCCc1ccc(C(=O)O)nc1 [fusaric acid, 5-butyl picolinic acid]",fate of viruses and host cells,virally infected cells,Death by apoptosis
same,germination of the angiosperm parasite,Orobache ramosa,inhibited
same,concentrations that reduced root growth,"Arabidopsis thaliana [4]; also rapid transient membrane hyperpolarization, then large depolarization",> 500 µM
same,concentration eliciting plant defense responses without toxic effects,Arabidopsis thaliana [4]; in vivo,100 nM
same,removal of zinc (Zn65) from the CCCC zinc finger of MPS-1,recombinant MPS-1,remove radioactive Zn65 from MPS-1; also recorded: remove zinc
same,zinc dependent binding of recombinant MPS-1 to DNA,recombinant MPS-1,inhibit
same,efficacy against viral infection,HSV-1,effective
same,efficacy against viral infection,HSV-2,effective
"O=C(O)c1ccccn1 [picolinic acid, 2-pyridine carboxylic acid]",mitochondrial cytochrome c release,[5],released cytochrome c
same,toxic effects in normal cells,[6]; longer exposure (one week),most normal cells showed no toxic effects; also recorded: no toxic effects
same,cell cycle arrest of normal cells,[6]; short-term treatment,arrests normal cells in G1 (Go)
same,fate of viruses and host cells,virally infected cells,Death by apoptosis
same,fate of virally infected cells,virally infected cells; by apoptosis,killed
same,incorporation of iron into the cells,[7],inhibits incorporation of iron into the cells
same,removal of radioiron from the cells,[7],effectively removes radioiron from the cells
same,removal of zinc (Zn65) from the CCCC zinc finger of MPS-1,recombinant MPS-1,remove radioactive Zn65 from MPS-1; also recorded: remove zinc
same,zinc dependent binding of recombinant MPS-1 to DNA,recombinant MPS-1,inhibit
same,apoptosis,[8]; Rice suspension cells and leaves,showed apoptosis
same,reactive oxygen species,"[8]; rice suspension cells, Ca^2+-dependent",induced reactive oxygen species (ROS)
same,hypersensitive response (HR),[8]; rice,can elicit the hypersensitive response (HR)
same,potency of prostaglandin E1 in elevating cyclic AMP,NRK cells,two to five times more potent
same,"marker defense genes PR-1, PR-2 and PDF1.2",Arabidopsis thaliana [9]; dose-dependent and time dependent,all induced
same,salicylic acid-dependent and jasmonic acid/ethylene-dependent pathways,Arabidopsis thaliana [9]; in vivo,strongly activated
same,hypersensitive response (HR),Arabidopsis thaliana [9]; including the oxidative burst and cell death,induced HR
same,sensitivity of transformed cells to apoptosis,[2],extremely sensitive to apoptosis
same,phase of cell cycle arrest,transformed cells,G1 phase
